For data set [1], the target named is T1, SARS-CoV-2 M^Pro (Severe acute respiratory syndrome coronavirus 2, UniProt P0DTD1). The data set can be described thus: Determination of IC50 values for SARS-CoV-2 M^Pro (fluorogenic peptide substrate, end-point). It is filed as biochemical.
In data set [2] the target is T1, SARS-CoV-2 M^Pro. Put plainly: Determination of KI values for SARS-CoV-2 M^Pro (initial velocity, competitive inhibition). The format is biochemical.
Another data set deals with SARS-CoV-2 PL^Pro (Severe acute respiratory syndrome coronavirus 2, UniProt P0DTD1). The data set can be described thus: Determination of IC50 values for SARS-CoV-2 PL^Pro (Z-RLRGG-AMC substrate). It is filed as biochemical.
The next data set has as its target T2, Cathepsin L (Homo sapiens, UniProt P07711).
T2 construct: purchased Abcam ab197012
Put plainly: Cathepsin L inhibition assay kit (Abcam), IC50 and kinact/KI. It is filed as biochemical. The settings on record: for IC50: 20 min pretreatment; for kinact/KI: read-out: Cathepsin L kinact/KI. Here is the method: (§1) Determination of IC50 and kinact/KI values for Cathepsins L and B
IC50 and kinact/KI values of the inhibitors were determined using commercially available inhibition assay kits (Abcam) by following the manufacturer's protocol. […] The observed rates (kobs) were determined by fitting to a single-phase association equation. The resulting kobs values were plotted against the concentrations of inhibitor and the data were fit to equation 2 to derive the kinact/KI values,
using GraphPad Prism, where kinact is the maximal rate of inactivation, KI is the concentration of inhibitor that affords half-maximal inactivation, and [I] is the concentration of inhibitor. When kobs with [I] varied linearly, kinact/KI was determined from the slope of the line. All the experiments were performed in triplicate. […] Crystallization of M^Pro in Complex with Inhibitors

Another data set concerns the target T3, Cathepsin B (Homo sapiens, UniProt P07858).
T3 construct: purchased Abcam ab185438
The data set can be described thus: Cathepsin B inhibition assay kit (Abcam), IC50. The settings on record: 20 min pretreatment. The format is biochemical. The method, then:
as §1
IC50 and kinact/KI values of the inhibitors were determined using commercially available inhibition assay kits (Abcam) by following the manufacturer's protocol. For IC50 values, enzymes were pretreated with test inhibitor (0-50 μM) for 20 min prior to adding the fluorogenic substrate, and end-point fluorescence was recorded after 30 min. For the kinact/KI values, enzymes were treated with inhibitor and substrate simultaneously and increase in fluorescence was monitored over 60 min. The observed rates (kobs) were determined by fitting to a single-phase association equation. The resulting kobs values were plotted against the concentrations of inhibitor and the data were fit to equation 2 to derive the kinact/KI values,
using GraphPad Prism, where kinact is the maximal rate of inactivation, KI is the concentration of inhibitor that affords half-maximal inactivation, and [I] is the concentration of inhibitor. When kobs with [I] varied linearly, kinact/KI was determined from the slope of the line. All the experiments were performed in triplicate. All fluorescence measurements were taken at absorption/emission wavelength of 400/505 nm using an EnVision 2105 plate reader. Crystallization of M^Pro in Complex with Inhibitors

For another data set, the system named is SARS-CoV-2. Put plainly: microbe, parasite or virus in culture. The format is cell-based. To be noted: for EC90: read-out: EC90, inhibition of SARS-CoV-2 infection; for EC50: read-out: EC50, inhibition of SARS-CoV-2 infection; for IC50: hACE2 expressing A549 cells, read-out: IC50, block of SARS-CoV2 replication.
A further data set deals with OC-43. It is filed as cell-based. The settings on record: A549-hACE2 cells.
Data set [3] addresses T4, M^Pro (Severe acute respiratory syndrome coronavirus 2, UniProt P0DTD1). The format is binding.
The target of data set [4] is T4, M^Pro. The data set can be described thus: Labelling of A549-hACE2 lysate spiked with recombinant M^Pro with SM144, competition by SM141 or SM142. It is filed as binding, SARS-CoV-2. To be noted: 250 nM M^Pro spiked, 2.5 μM SM144, 2.5-25 μM competitor. The method, then: A549-hACE2 cells were grown in the DMEM medium (supplemented with 10% heat-inactivated fetal bovine serum, 100 units/mL penicillin and 100 μg/mL streptomycin). Upon reaching ˜90% confluence, cells were collected using a cell scraper, harvested by centrifugation at 3,000 rpm for 5 min and were resuspended in 1×PBS supplemented with 1% NP-40. Then the cells were lysed using a probe sonicator and lysates were cleared by centrifugation at 21000 g for 15 min. Soluble proteins in the lysate were quantified by DC-assay (Bio-Rad).
A549-hACE2 lysate (2 mg/mL, 50 μL total) spiked with or without recombinant M^Pro (250 nM final) was treated with DTT (1 mM final) and various concentrations of SM144 (0-5 μM final). […] All these reactions were incubated at 25° C. for 30 min. Then TAMRA-N3 (100 μM), TCEP (1 mM), TBTA (0.3 mM) and freshly prepared copper (II) sulphate (4 mM) were added sequentially to the reaction mixture. The tubes were then gently tumbled at room temperature for 2 h. The precipitated proteins were collected by centrifugation at 5000 rpm for 6 min. The protein pellets were resuspended in 5×SDS-PAGE loading dye, heated at 95° C. for 10 min and separated by SDS-PAGE. Protein bands were visualized by recording in-gel fluorescence using a typhoon scanner (excitation/emission maxima ˜546/579 nm). All the experiments were performed in duplicate.

For data set [5] the following is noted: mock-infected mice.
Data set [6] is described as follows: Pharmacokinetic parameters in mice (plasma, LC-MS/MS). The settings on record: for CI_Obs: IV.
Experimental: Pharmacokinetics were evaluated in male C57Bl/6 mice, approximately 25 g. Test compounds were formulated at 0.3 mg/mL for intravenous dosing and 1 mg/mL for oral gavage. Formulation concentrations reflect free-base concentrations. Formulations were prepared by dissolving in DMSO (20× stock) and mixing 1:1 with tween-80. Prior to dosing, the formulation was diluted with sterile saline. The final formulation was 5% DMSO, 5% tween-80, 90% saline (v:v:v). Mice (n=3) were dosed at 10 μL per gram body weight. […] A total of 25 μL blood was collected at each time point. The hematocrit tubes were sealed with a wax plug and held on ice until plasma could be isolated via centrifugation in a microcentrifuge fit with a hematocrit rotor.
Drug levels were determined from 5 μL plasma. Plasma was treated with 75 μL 90/10 acetonitrile/water containing Carbamazepine as an internal standard (IS). Samples were loaded to a 96-well Millipore Multiscreen Solvinter 0.45 micron low binding PTFE hydrophilic filter plate and the filtrate was directly analyzed. All plasma samples were treated with 75 μL 90/10 acetonitrile/water with Carbamazepine as internal standard (IS) to extract the analyte and precipitate protein. The plates were agitated on ice for approximately five minutes prior to centrifugation into a collection plate. Separate standard curves were prepared in blank mouse plasma and brain homogenate and processed in parallel with the samples. The filtrate was directly analyzed by LC-MS/MS.
Data set [7] has as its target T1, SARS-CoV-2 M^Pro. Put plainly: Determination of kinact/KI values for SARS-CoV-2 M^Pro (time- and concentration-dependent inactivation). It is filed as biochemical. Here is the method:
where νo is the initial velocity of uninhibited reaction and νi is the initial velocity in the presence of inhibitor. All measurements were done in triplicate. Determination of kinact/KI values for SARS-CoV-2 M^Pro
Time- and concentration-dependent inactivation assays were done by following a similar protocol as described for Ki determination. M^Pro (12.5 nM final) was treated with the peptide-substrate (30 μM final) and test inhibitor (0-80 μM for D-FF(R/Cit)-(CMK/CMKyne); 0-1.25 mM for SM136-145) at time=0 to initiate inactivation process. The total volume of the assay mixture was 50 μL. Time-dependent increase in fluorescence was monitored at 485 nm with excitation at 340 nm for a period of 20-25 min. The observed rates (kobs) for the peptide cleavage in both the presence and absence of inhibitor were determined by fitting to a single-phase association equation. The resulting kobs values were plotted against the concentrations of inhibitor and linear fits were used to derive the slope that afforded the kinact/KI values. All measurements were done in triplicate.

Setting [8] is: Severe acute respiratory syndrome coronavirus 2, A549-hACE2 cells.
The mark [9] stands for this setting: Severe acute respiratory syndrome coronavirus 2.
Setting [10] is: 12.5 nM M^Pro, 20 min preincubation, 30 μM substrate, read-out: M^Pro IC50.
Setting [11] is: competitive inhibition, initial velocity, read-out: M^Pro Ki.
Where [12] appears, read: 30 nM PL^Pro, 20 min preincubation, read-out: PL^Pro IC50.
Where [13] appears, read: male, C57Bl/6, mouse, plasma, iv, 3 mg/kg.
[14] abbreviates: male, C57Bl/6, mouse, plasma, po, 10 mg/kg.

Read-outs that look alike come from different tables or passages of the source.

T2 sequence (P07711 114-333): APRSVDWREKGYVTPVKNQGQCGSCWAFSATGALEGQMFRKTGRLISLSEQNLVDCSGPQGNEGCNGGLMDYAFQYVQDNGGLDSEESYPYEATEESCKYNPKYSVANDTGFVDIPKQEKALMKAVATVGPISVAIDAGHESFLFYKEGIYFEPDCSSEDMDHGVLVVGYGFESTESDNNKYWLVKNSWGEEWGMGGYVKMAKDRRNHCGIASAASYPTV

On SARS-CoV-2 M^Pro [1], `CCOC(=O)C=CC(CC1CCNC1=O)NC(=O)C(Cc1ccccc1)NC(=O)C(N)Cc1ccccc1` (stereo not shown) [SM141] displayed a concentration for half-maximal inhibition (IC50) of 0.9 µM. Affinity on SARS-CoV-2 M^Pro [2] was put at a Ki of 9 µM. For the same molecule, at SARS-CoV-2 PL^Pro, the IC50 is > 50 µM and the “inhibition of papain-like protease (PL^Pro), in words” value is “completely inactive”. In addition, the IC50 on Cathepsin L amounted to 0.06 µM. In addition, the concentration for half-maximal inhibition (IC50) on Cathepsin B is > 50 µM. In addition, the “antiviral activity, in words” value in the data set with SARS-CoV-2 (A549-hACE2 cells, 2 μM, 24 h) was “almost completely blocks viral infection”. The 90% effect concentration (EC90) in the data set with SARS-CoV-2 (A549-hACE2 cells) is 0.022 µM. Also, in the data set on SARS-CoV-2 (setting [8]), the concentration giving a half-maximal response (EC50) turned out to be 0.0082 µM and the EC90 came to 0.0221 µM. The half-inhibitory concentration (IC50) with SARS-CoV-2 (setting [9]) turned out to be 0.0082 µM. Further, in the data set on OC-43, the “inhibition of OC-43, in words” value is given as “inhibit OC-43”. Besides, at M^Pro [3] (0-50 μM competitor, 5 μM SM144), the “inhibition of SM144 labeling of recombinant M^Pro” value is given as “competitively inhibited”. Further, the “labeling of M^Pro in spiked A549-hACE2 lysate / its inhibition” value at M^Pro [4] was “dose dependently inhibited”. In data set [5], the “weight loss in uninfected mice” value is recorded as “no significant weight loss in the uninfected mice”. Besides, in [6] (mice), the “oral bioavailability / oral absorption, in words” value was “minimal oral bioavailability”; the “plasma half-life (T1/2), in words” value was “about an hour”; the “tissue distribution, in words” value is recorded as “lower tissue distribution”; the CI_Obs was determined as 71.5 mL/min/kg.
Regarding `CCOC(=O)C=CC(CC1CCNC1=O)NC(=O)C(Cc1ccccc1)NC(=O)C(Cc1ccc(F)cc1)NC(=O)OC(C)(C)C` (stereo not shown) [SM142], the IC50 at SARS-CoV-2 M^Pro [1] (setting [10]) is 1.8 µM. The Ki on SARS-CoV-2 M^Pro [2] (setting [11]) is 10 µM. The kinact/KI on SARS-CoV-2 M^Pro [7] (read-out: M^Pro kinact/KI) stood at 183 M⁻¹ s⁻¹. Moreover, the “inhibition of papain-like protease (PL^Pro), in words” value on SARS-CoV-2 PL^Pro is “completely inactive”. The IC50 at SARS-CoV-2 PL^Pro (setting [12]) was > 50 µM. Further, on Cathepsin L, the half-inhibitory concentration (IC50) turned out to be 0.145 µM and the kinact/KI amounted to 1830 M⁻¹ s⁻¹. The IC50 on Cathepsin B stood at 40 ± 9 µM. For the same molecule, the concentration for a half-maximal effect (EC50) with SARS-CoV-2 (setting [8]) was found to be 0.0147 µM. In the data set on SARS-CoV-2 (setting [9]), the IC50 turned out to be 0.0147 µM. In addition, the “inhibition of OC-43, in words” value in the data set with OC-43 is “inhibit OC-43”. For the same molecule, the “labeling of M^Pro in spiked A549-hACE2 lysate / its inhibition” value on M^Pro [4] was “dose dependently inhibited”. For the same molecule, the “weight loss in uninfected mice” value in data set [5] is given as “no significant weight loss in the uninfected mice”. This molecule also gave a half-life in [6] (male, C57Bl/6, mouse, in vivo, po, 10 mg/kg) of 2.1 h. Also, in data set [6] (setting [13]), the AUC(0-inf) was 308 ng·h/mL, the AUC(0-t) stood at 0.4 µM·h, the highest concentration (Cmax) was determined as 400 nM and the mean residence time MRT inf came out at 1.9 h. In [6] (setting [13]), the time of peak concentration (Tmax) amounted to 4.8 min, the Vd was 13.2 L/kg and the half-life is 2.1 h. Further, in data set [6] (setting [14]), the total exposure AUC(0-inf) is 347 ng·h/mL, the AUC(0-t) worked out at 0.5 µM·h, the concentration peaked (Cmax) at 600 nM and the Tmax came out at 4.8 min. In data set [6] (setting [14]), the bioavailability came to 37.5%. In data set [6] (mice), the “oral bioavailability / oral absorption, in words” value is recorded as “significant oral absorption”; the “tissue distribution, in words” value is given as “much higher tissue distribution than SM141”; the CI_Obs is reported as 169 mL/min/kg.
Consider `C#CCOCCC(=O)NC(Cc1ccc(F)cc1)C(=O)NC(Cc1ccccc1)C(=O)NC(C=CC(=O)OCC)CC1CCNC1=O` (stereo not shown) [SM144], for which the concentration for half-maximal inhibition (IC50) was 0.7 µM at SARS-CoV-2 M^Pro [1] (setting [10]), > 50 µM on SARS-CoV-2 PL^Pro (setting [12]), 0.22 µM at Cathepsin L and > 50 µM on Cathepsin B. In addition, the Ki at SARS-CoV-2 M^Pro [2] (setting [11]) came to 4.5 µM. Also, the kinact/KI on SARS-CoV-2 M^Pro [7] (read-out: second-order rate constant for enzyme inactivation (kinact/KI), M^Pro) was 567 M⁻¹ s⁻¹; on Cathepsin L it was 1000 M⁻¹ s⁻¹. The “antiviral activity compared with SM141 and SM142” value with SARS-CoV-2 (A549-hACE2 cells) is “significantly lower antiviral activity than SM141 and SM142”. For the same molecule, the “limit of detection of M^Pro by the probe” value on M^Pro [3] (5 μM SM144, TAMRA-azide, in-gel fluorescence) is listed as 5 pmol. The “labeling of M^Pro in spiked A549-hACE2 lysate / its inhibition” value on M^Pro [4] is “selectively labels M^Pro in a dose-dependent manner”.

As a reminder, the IC50 is the point on the concentration scale where inhibition reaches its midpoint. One may read the Ki as the dissociation constant of the complex between target and ligand, obtained from inhibition or displacement. As usually defined, the EC90 is the point of the concentration-response curve where the effect stands at 90%. One may read the EC50 as the midpoint of the concentration-response curve. What is called half-life is the time in which the quantity being followed falls by half. Higher therefore signals slow loss. One may read the AUC(0-inf) as the area under the concentration-time curve extrapolated to infinity. Low values mean low exposure, high ones high exposure. As usually defined, the AUC(0-t) is exposure summed from dosing to a finite time, without extrapolation to infinity. The low end stands for low exposure, the high end for high exposure. As a reminder, the Cmax is the highest concentration seen after dosing. Usually MRT inf stands for the average time that molecules of a dose stay in the body. The Tmax is the time from dosing to the highest level. As usually defined, the Vd is the apparent volume that relates the amount in the body to the concentration in plasma or blood. A lower Vd goes with confinement near the circulation. The bioavailability is the share of a dose that reaches the circulation, judged against a reference dose that is usually intravenous.

The values are drawn from patent US20250326715A1, “NOVEL MAIN PROTEASE INHIBITORS, AND COMPOSITIONS AND METHODS THEREOF” (University of Massachusetts, priority 2023, published 2025).
